Values of other authors, collected in patent US20140010884A1, “DERMATOLOGICAL COMPOSITIONS COMPRISING RETINOIDS, DISPERSED BENZOYL PEROXIDE AND CARRAGEENANS” (GALDERMA RESEARCH & DEVELOPMENT, priority 2008, published 2014).
Read-outs that look alike come from different tables or passages of the source. Each block holds one compound with its values, some of them ahead of it.

What was measured:
[1] = in PEG 400 and ethanol
[2] = for decomposition time: 40° C.

decomposition of retinoid in presence of benzoyl peroxide (during 24 hours): no decomposition
Compound: COc1ccc(-c2ccc3cc(C(=O)O)ccc3c2)cc1C12CC3CC(CC(C3)C1)C2 [adapalene, 6-[3-(1-adamantyl)-4-methoxyphenyl]-2-naphthoic acid]

Compound: O=C(OOC(=O)c1ccccc1)c1ccccc1 [benzoyl peroxide]
solubility [1]: particularly soluble | decomposition time ([2]; in PEG 400 (0.5 mg/g)): 1.4 days | decomposition time ([2]; in ethanol): 29 days | decomposition time ([2]; in propylene glycol): 53 days | decomposition in suspension (dispersed form) ([2]; in water and propylene glycol, after storing for 90 days): not decomposed

retinoid decomposing in presence of benzoyl peroxide (in 2 hours): 50% | retinoid decomposing in presence of benzoyl peroxide (in 24 hours): 95%
Compound: CC1=C(/C=C/C(C)=C/C=C/C(C)=C/C(=O)O)C(C)(C)CCC1 [tretinoin]
